Experimental data as given in patent US20040010001A1, “Methods and compositions for modulating cell proliferation and cell death” (priority 1999, published 2004).
Where two headings read alike, the source gives them in different places. One block for each compound: values may come before it.

How the values were obtained:
[1] = tested on: human prostate PC3-LN tumor cells; assay: cells; assay type: cell-based; conditions: read-out: IC50 in the monolayer cultures of PC3-LN cells
[2] = tested on: rat lymph node metastases, histocultures; assay: Drug effect in histocultures of rat lymph node metastases (inhibition of 3H-thymidine incorporation); assay type: cell-based
[3] = tested on: rat primary tumor cells, monolayers; assay: Drug effect in monolayers of rat primary tumor cells (inhibition of bromodeoxyuridine incorporation); assay type: cell-based; conditions: 96 h, read-out: Concentration producing 50% inhibition
[4] = tested on: Human prostate PC3 tumor cells; assay: Drug treatment and extracellular bFGF (ELISA), LDH release, cell number; assay type: cell-based; conditions: for Extracellular bFGF, % of control / Extracellular concentration bFGF / Extracellular LDH, % of control / bFGF:LDH ratio: 72 hours
Procedure: The experimental conditions are described briefly below. […] The remaining cell number at the end of treatment was counted using a Coulter counter. The extracellular bFGF concentration was measured using ELISA. The release of lactate dehydrogenase (LDH) into the extracellular culture medium is indicative of cell death and gives a measure of the release of cellular content into the culture medium. If the increase in extracellular bFGF level is due to the release of bFGF upon cell death and lysis, the increase in bFGF will be accompanied by an increase in LDH in the same extent. This would result in an higher bFGF level and a constant bFGF-to-LDH ratio. On the other hand, an increase in extracellular bFGF due to an increase in bFGF production and release of bFGF from cells by processes other than cell lysis will result in an higher bFGF level and an higher bFGF-to-LDH ratio.

[5] = tested on: normal rat intestinal epithelial cells (IEC6); assay: Protection of normal intestinal epithelial cells by aFGF/bFGF, BrdU incorporation; assay type: cell-based; conditions: drug 24 hours
Procedure: These cells were derived from normal, noncancerous intestinal epithelium. […] Drug effect was measured as the reduction of bromodeoxyuridine incorporation in treated cells relative to untreated controls.

[6] = tested on: human PC3-LN lung metastases
Procedure: Animal care was in accordance with the guidelines at the Ohio State University. Several human tumor models were used, including (a) lung metastases derived from intravenous injection of human PC3-LN tumor cells, (b) lung tumors derived from direct injection of human PC3 cells in lungs, and (c) subcutaneously implanted PC3 tumors. Four studies were performed. In all studies, drug treatment was administered intravenously via a tail vein, after the tumor was established. The first and second studies used the intravenous PC3-LN lung metastasis model. Briefly, human PC3-LN cells ([…] in 0.1 ml physiologic saline) were injected intravenously, via a tail vein, into immunodeficient mice. […] Treatment was given twice weekly for three weeks. […] Three days after completion of drug treatments, animals were euthanized and their lungs removed, fixed in Bouin's solution to visualize tumor nodules, and then processed for histologic evaluation. […] The lung surface area (counted as number of pixel) occupied by the tumor was calculated as a fraction of the total lung area, using Adobe PhotoShop. The number of tumor cells in residual tumors and the fraction of apoptotic cells in each tumor were also determined microscopically. Because apoptotic cells disappear over time, a second measure of the extent of apoptosis was the density of non-apoptotic cells in the residual tumors. This was determined by counting the number of non-apoptotic tumor cells in randomly selected microscopic fields at 400× magnification. […] In the case of combination therapy where fewer than 5 tumor nodules remained per animal, all residual cells (between 20 to 600 cells per animal) were counted.

[7] = tested on: Human prostate PC3 tumor cells; assay: aFGF/bFGF-induced resistance and reversal by suramin, sulforhodamine B assay; assay type: cell-based; conditions: for Resistance, Folds, aFGF 0.3 ng/ml + bFGF 1 ng/ml / Resistance, Folds, aFGF 1 ng/ml + bFGF 3 ng/ml: no suramin, relative to control
Procedure: The experimental conditions are described briefly below. […] Cell number was measured using the sulforhodamine B assay which measures the total protein concentration. […] The FGF-induced resistance was dependent on the FGF concentrations, with a higher resistance at higher FGF concentrations.

[8] = tested on: rat lung metastases, histocultures; assay: Drug effect in histocultures of rat lung metastases (inhibition of 3H-thymidine incorporation); assay type: cell-based
[9] = 24 h, read-out: Concentration producing 50% inhibition (data shown are the concentrations that produced 30% inhibition)
[10] = IEC-6, absence of aFGF and bFGF
[11] = IEC-6, pretreated with 1 ng/ml aFGF and 3 ng/ml bFGF for 96 hours
[12] = paclitaxel study: suramin 10 mg/kg, paclitaxel 15 mg/kg, intravenous twice weekly for three weeks
[13] = Homo sapiens, read-out: IC50, Control (drug treatment only, without FGF treatment), No suramin, drug 96 hours
[14] = Homo sapiens, read-out: IC50, aFGF 0.3 ng/ml + bFGF 1 ng/ml, No suramin, FGF pretreatment 96 hours, drug 96 hours
[15] = Homo sapiens, read-out: IC50, aFGF 1 ng/ml + bFGF 3 ng/ml, No suramin, FGF pretreatment 96 hours, drug 96 hours
[16] = read-out: IC50, Control (without FGF treatment), Suramin, 15 μM, drug 96 hours with 15 μM suramin
[17] = read-out: IC50, aFGF 0.3 ng/ml + bFGF 1 ng/ml, With suramin, FGF pretreatment 96 hours, drug 96 hours with 15 micromolar suramin
[18] = read-out: IC50, aFGF 1 ng/ml + bFGF 3 ng/ml, With suramin, FGF pretreatment 96 hours, drug 96 hours with 15 micromolar suramin
[19] = doxorubicin study: suramin 10 mg/kg, doxorubicin 5 mg/kg, intravenous twice weekly for three weeks
[20] = suramin 10 mg/kg, doxorubicin 5 mg/kg, intravenous twice weekly for three weeks

- IC50 [1]: 8 nM
- IC50 ([3]; Monolayers (passage 0)): 10.7 ± 0.5 nM
- IC50 ([3]; Monolayers (passage 1)): 10.5 ± 0.5 nM
- IC50 ([3]; Monolayers (passage 2)): 10.3 ± 0.8 nM
- IC50 ([3]; Monolayers (passage 3)): 10 ± 0.2 nM
- IC50 [7, 13]: 2.16 nM
- IC50 [7, 14]: 6.53 nM
- IC50 [7, 15]: 12.1 nM
- IC50 [7, 16]: 2.13 nM
- IC50 [7, 17]: 1.88 nM
- IC50 [7, 18]: 2.01 nM
Compound: CC(=O)O[C@H]1C(=O)[C@@]2(C)[C@H]([C@H](OC(=O)c3ccccc3)[C@]3(O)C[C@H](OC(=O)[C@H](O)[C@@H](NC(=O)c4ccccc4)c4ccccc4)C(C)=C1C3(C)C)[C@]1(OC(C)=O)CO[C@@H]1C[C@@H]2O [Paclitaxel]
- IC30 (concentration producing 30% inhibition) [2, 9]: > 227 nM
- Remaining cell number at 72 hours (% of control) ([4]; drug concentration 2.5 NM): 87%
- Remaining cell number at 72 hours × 10^6 ([4]; drug concentration 2.5 NM): 2.0 × 10^6
- Extracellular bFGF, % of control ([4]; drug concentration 2.5 NM): 347 % of control
- Extracellular concentration bFGF ([4]; drug concentration 2.5 NM): 19.5 pg/mL
- Remaining cell number at 72 hours (% of control) ([4]; drug concentration 5 NM): 43%
- Remaining cell number at 72 hours × 10^6 ([4]; drug concentration 5 NM): 1.0 × 10^6
- Extracellular LDH, % of control ([4]; drug concentration 5 NM): 437 % of control
- Extracellular bFGF, % of control ([4]; drug concentration 5 NM): 1358 % of control
- Extracellular concentration bFGF ([4]; drug concentration 5 NM): 76.3 pg/mL
- Remaining cell number at 72 hours (% of control) ([4]; drug concentration 10 NM): 22%
- Remaining cell number at 72 hours × 10^6 ([4]; drug concentration 10 NM): 0.5 × 10^6
- Extracellular LDH, % of control ([4]; drug concentration 10 NM): 705 % of control
- Extracellular bFGF, % of control ([4]; drug concentration 10 NM): 2917 % of control
- Extracellular concentration bFGF ([4]; drug concentration 10 NM): 164 pg/mL
- IC50 [5, 10]: 491 nM
- IC50 [5, 11]: 1450 nM
- increase of the fraction of apoptotic cells ([6]; paclitaxel 15 mg/kg alone): 13 fold
- reduction of the density of nonapoptotic cells ([6]; paclitaxel 15 mg/kg alone): ~70%
- % Apoptotic cells per tumor [6, 12]: 53 ± 24 %
- Density of nonapoptotic cells in residual tumors, cells/field [6, 12]: 49 ± 35 cells/field
- Resistance, Folds, aFGF 0.3 ng/ml + bFGF 1 ng/ml [7]: 3.02 Folds
- Resistance, Folds, aFGF 1 ng/ml + bFGF 3 ng/ml [7]: 5.59 Folds
- IC30 [8, 9]: > 1800 nM

- IC50 [1]: 17 nM
- IC50 ([2]; Histocultures, Lymph node, 96 hours, read-out: Concentration producing 50% inhibition): 165 ± 66 nM
- IC50 ([3]; Monolayers (passage 0)): 8 ± 0.5 nM
- IC50 ([3]; Monolayers (passage 1)): 8.6 ± 0.5 nM
- IC50 ([3]; Monolayers (passage 2)): 8 ± 0.4 nM
- IC50 ([3]; Monolayers (passage 3)): 8 ± 0.2 nM
- IC50 [7, 13]: 27.8 nM
- IC50 [7, 14]: 145 nM
- IC50 [7, 15]: 281 nM
- IC50 [7, 16]: 35.9 nM
- IC50 [7, 17]: 29.8 nM
- IC50 [7, 18]: 27.9 nM
Compound: COc1cccc2c1C(=O)c1c(O)c3c(c(O)c1C2=O)C[C@@](O)(C(=O)CO)C[C@@H]3O[C@H]1C[C@H](N)[C@H](O)[C@H](C)O1 [Doxorubicin]
- Remaining cell number at 72 hours (% of control) ([4]; drug concentration 20 NM): 84%
- Remaining cell number at 72 hours × 10^6 ([4]; drug concentration 20 NM): 2.1 × 10^6
- Extracellular LDH, % of control ([4]; drug concentration 20 NM): 119 % of control
- Extracellular bFGF, % of control ([4]; drug concentration 20 NM): 124 % of control
- Extracellular concentration bFGF ([4]; drug concentration 20 NM): 5.87 pg/mL
- Remaining cell number at 72 hours (% of control) ([4]; drug concentration 60 NM): 48%
- Remaining cell number at 72 hours × 10^6 ([4]; drug concentration 60 NM): 1.2 × 10^6
- Extracellular LDH, % of control ([4]; drug concentration 60 NM): 173 % of control
- Extracellular bFGF, % of control ([4]; drug concentration 60 NM): 239 % of control
- Extracellular concentration bFGF ([4]; drug concentration 60 NM): 11.3 pg/mL
- Remaining cell number at 72 hours (% of control) ([4]; drug concentration 200 NM): 16%
- Remaining cell number at 72 hours × 10^6 ([4]; drug concentration 200 NM): 0.4 × 10^6
- Extracellular LDH, % of control ([4]; drug concentration 200 NM): 316 % of control
- Extracellular bFGF, % of control ([4]; drug concentration 200 NM): 461 % of control
- Extracellular concentration bFGF ([4]; drug concentration 200 NM): 21.8 pg/mL
- IC50 [5, 10]: 292 nM
- IC50 [5, 11]: 544 nM
- reduction of tumor size ([6]; doxorubicin 5 mg/kg alone): ~80%
- % Apoptotic cells per tumor [6, 19]: 29 ± 16 %
- Density of nonapoptotic cells in residual tumors, cells/field [6, 19]: 77 ± 17 cells/field
- % Lung surface area occupied by tumor [6, 20]: 2 ± 1 %
- % Tumor-free animals [6, 20]: 0%
- Resistance, Folds, aFGF 0.3 ng/ml + bFGF 1 ng/ml [7]: 5.23 Folds
- Resistance, Folds, aFGF 1 ng/ml + bFGF 3 ng/ml [7]: 10.11 Folds

Compound: O=c1[nH]cc(F)c(=O)[nH]1 [5-Fluorouracil]
- IC50 ([3]; Monolayers (passage 0)): 790 ± 40 nM
- IC50 ([3]; Monolayers (passage 1)): 850 ± 30 nM
- IC50 ([3]; Monolayers (passage 2)): 790 ± 60 nM
- IC50 ([3]; Monolayers (passage 3)): 780 ± 40 nM
- Remaining cell number at 72 hours (% of control) ([4]; drug concentration 2000 NM): 88%
- Remaining cell number at 72 hours × 10^6 ([4]; drug concentration 2000 NM): 2.2 × 10^6
- Extracellular LDH, % of control ([4]; drug concentration 2000 NM): 121 % of control
- Extracellular bFGF, % of control ([4]; drug concentration 2000 NM): 139 % of control
- Extracellular concentration bFGF ([4]; drug concentration 2000 NM): 8.37 pg/mL
- bFGF:LDH ratio ([4]; drug concentration 2000 NM): 1.15
- Remaining cell number at 72 hours (% of control) ([4]; drug concentration 6000 NM): 56%
- Remaining cell number at 72 hours × 10^6 ([4]; drug concentration 6000 NM): 1.4 × 10^6
- Extracellular LDH, % of control ([4]; drug concentration 6000 NM): 158 % of control
- Extracellular bFGF, % of control ([4]; drug concentration 6000 NM): 189 % of control
- Extracellular concentration bFGF ([4]; drug concentration 6000 NM): 11.35 pg/mL
- bFGF:LDH ratio ([4]; drug concentration 6000 NM): 1.20
- Remaining cell number at 72 hours (% of control) ([4]; drug concentration 20000 NM): 24%
- Remaining cell number at 72 hours × 10^6 ([4]; drug concentration 20000 NM): 0.6 × 10^6
- Extracellular LDH, % of control ([4]; drug concentration 20000 NM): 202 % of control
- Extracellular bFGF, % of control ([4]; drug concentration 20000 NM): 296 % of control
- Extracellular concentration bFGF ([4]; drug concentration 20000 NM): 17.8 pg/mL
- bFGF:LDH ratio ([4]; drug concentration 20000 NM): 1.46
- IC50 [7, 13]: 2210 nM
- IC50 [7, 14]: 5050 nM
- IC50 [7, 15]: 12600 nM
- Resistance, Folds, aFGF 0.3 ng/ml + bFGF 1 ng/ml [7]: 2.29 Folds
- Resistance, Folds, aFGF 1 ng/ml + bFGF 3 ng/ml [7]: 5.71 Folds
- IC50 [7, 16]: 2390 nM
- IC50 [7, 17]: 2160 nM
- IC50 [7, 18]: 2140 nM
- IC50 ([8]; Histocultures, Lung, 96 hours, read-out: Concentration producing 50% inhibition): 122000 ± 25000 nM
